# Laboratory results as given in patent publication US20240158348A1, “HERBICIDAL CYCLIC AMIDES N-SUBSTITUTED WITH A HALOALKYLSULFONYLANILIDE GROUP” (FMC Corporation, priority 2021, published 2024).
# What was measured:
# [1] = system: foxtail, giant (giant foxtail, Setaria faberi); assay: Test C preemergence, giant foxtail; type: in vivo; conditions: 0 is no effect, 100 is complete control
# Description: (§1) Seeds of plant species selected from blackgrass (Alopecurus myosuroides), corn (Zea mays), foxtail, giant (giant foxtail, Setaria faberi), goosegrass (Eleusine indica), kochia (Bassia scoparia), oat, wild (wild oat, Avena fatua), pigweed, palmer (palmer amaranth, Amaranthus palmeri), ragweed (common ragweed, Ambrosia artemisiifolia), ryegrass, Italian (Italian ryegrass, Lolium multiflorum), soybean (Glycine max) and wheat (Triticum aestivum) were planted into a blend of loam soil and sand and treated preemergence with a directed soil spray using test chemicals formulated in a non-phytotoxic solvent mixture which included a surfactant.
# (§2) At the same time, plants selected from these crop and weed species and also galium (catchweed bedstraw, Galium aparine) and horseweed (Erigeron canadensis) were planted in pots containing the same blend of loam soil and sand and treated with postemergence applications of test chemicals formulated in the same manner. Plants ranged in height from 2 to 10 cm and were in the one- to two-leaf stage for the postemergence treatment. Treated plants and untreated controls were maintained in a greenhouse for 10 or 12 days, after which time all treated plants were compared to untreated controls and visually evaluated for injury. Plant response ratings, summarized in Table A, are based on a 0 to 100 scale where 0 is no effect and 100 is complete control. A dash (-) response means no test result.
# [2] = system: ragweed (common ragweed, Ambrosia artemisiifolia); assay: Test C postemergence, ragweed; type: in vivo
# Description: as §1, §2
# rice (Oryza sativa) = assay: Test D flooded paddy test, rice; type: in vivo; set-up: key: 0 = no effect, 100 = complete control; conditions: 250 g ai/ha, Flood; applied to paddy water at 2-leaf stage; visual rating after 13 days; scale 0 (no effect) to 100 (complete control)
# Procedure: (§3) Plant species in the flooded paddy test selected from barnyardgrass (Echinochloa crusgalli), ducksalad (Heteranthera limosa), rice (Oryza sativa), and sedge, umbrella (small-flower umbrella sedge, Cyperus difformis) were grown to the 2-leaf stage for testing. At time of treatment, test pots were flooded to 3 cm above the soil surface, treated by application of test compounds directly to the paddy water, and then maintained at that water depth for the duration of the test. Treated plants and controls were maintained in a greenhouse for 13 days, after which time all species were compared to controls and visually evaluated. Plant response ratings, summarized in Table B, are based on a scale of 0 to 100 where 0 is no effect and 100 is complete control. A dash (-) response means no test result.
# [3] = system: pigweed, palmer (palmer amaranth, Amaranthus palmeri); assay: Test C postemergence, palmer amaranth; type: in vivo
# Description: as §1, §2
# [4] = system: goosegrass (Eleusine indica); assay: Test C preemergence, goosegrass; type: in vivo; conditions: 0 is no effect, 100 is complete control
# Description: as §1, §2
# [5] = system: ducksalad (Heteranthera limosa); assay: Test D flooded paddy test, ducksalad; type: in vivo; set-up: key: 0 = no effect, 100 = complete control; conditions: 250 g ai/ha, Flood; applied to paddy water at 2-leaf stage; visual rating after 13 days; scale 0 (no effect) to 100 (complete control)
# Procedure: as §3
# [6] = system: barnyardgrass (Echinochloa crusgalli); assay: Test D flooded paddy test, barnyardgrass; type: in vivo; set-up: key: 0 = no effect, 100 = complete control; conditions: 250 g ai/ha, Flood; applied to paddy water at 2-leaf stage; visual rating after 13 days; scale 0 (no effect) to 100 (complete control)
# Procedure: as §3
# [7] = system: oat, wild (wild oat, Avena fatua); assay: Test C preemergence, wild oat; type: in vivo; conditions: 0 is no effect, 100 is complete control
# Description: as §1, §2
# soybean (Glycine max) [8] = assay: Test C preemergence, soybean; type: in vivo; conditions: 0 is no effect, 100 is complete control
# Description: as §1, §2
# kochia (Bassia scoparia) [9] = assay: Test C postemergence, kochia; type: in vivo
# Description: as §1, §2
# [10] = system: pigweed, palmer (palmer amaranth, Amaranthus palmeri); assay: Test C preemergence, palmer amaranth; type: in vivo; conditions: 0 is no effect, 100 is complete control
# Description: as §1, §2
# [11] = system: sedge, umbrella (small-flower umbrella sedge, Cyperus difformis); assay: Test D flooded paddy test, umbrella sedge; type: in vivo; set-up: key: 0 = no effect, 100 = complete control; conditions: 250 g ai/ha, Flood; applied to paddy water at 2-leaf stage; visual rating after 13 days; scale 0 (no effect) to 100 (complete control)
# Procedure: as §3
# soybean (Glycine max) [12] = assay: Test C postemergence, soybean; type: in vivo
# Description: as §1, §2
# [13] = system: ryegrass, Italian (Italian ryegrass, Lolium multiflorum); assay: Test C preemergence, Italian ryegrass; type: in vivo; conditions: 0 is no effect, 100 is complete control
# Description: as §1, §2
# corn (Zea mays) [14] = assay: Test C preemergence, corn; type: in vivo; conditions: 0 is no effect, 100 is complete control
# Description: as §1, §2
# kochia (Bassia scoparia) [15] = assay: Test C preemergence, kochia; type: in vivo; conditions: 0 is no effect, 100 is complete control
# Description: as §1, §2
# corn (Zea mays) [16] = assay: Test C postemergence, corn; type: in vivo
# Description: as §1, §2
# [17] = system: wheat (Triticum aestivum); assay: Test C postemergence, wheat; type: in vivo
# Description: as §1, §2
# [18] = system: foxtail, giant (giant foxtail, Setaria faberi); assay: Test C postemergence, giant foxtail; type: in vivo
# Description: as §1, §2
# [19] = system: ryegrass, Italian (Italian ryegrass, Lolium multiflorum); assay: Test C postemergence, Italian ryegrass; type: in vivo
# Description: as §1, §2
# [20] = system: blackgrass (Alopecurus myosuroides); assay: Test C postemergence, blackgrass; type: in vivo; conditions: 125 g ai/ha Postemergence; 0 is no effect, 100 is complete control
# [21] = system: ragweed (common ragweed, Ambrosia artemisiifolia); assay: Test C preemergence, ragweed; type: in vivo; conditions: 0 is no effect, 100 is complete control
# Description: as §1, §2
# [22] = system: goosegrass (Eleusine indica); assay: Test C postemergence, goosegrass; type: in vivo
# Description: as §1, §2
# [23] = system: blackgrass (Alopecurus myosuroides); assay: Test C postemergence, blackgrass; type: in vivo; conditions: 31 g ai/ha Postemergence; visual injury, 0 to 100 scale (0 no effect, 100 complete control)
# Description: as §1, §2
# [24] = system: galium (catchweed bedstraw, Galium aparine); assay: Test C postemergence, galium; type: in vivo
# Description: as §1, §2
# [25] = system: wheat (Triticum aestivum); assay: Test C preemergence, wheat; type: in vivo; conditions: 0 is no effect, 100 is complete control
# Description: as §1, §2
# [26] = system: horseweed (Erigeron canadensis); assay: Test C postemergence, horseweed; type: in vivo
# Description: as §1, §2
# [27] = system: oat, wild (wild oat, Avena fatua); assay: Test C postemergence, wild oat; type: in vivo
# Description: as §1, §2
# [28] = 31 g ai/ha Postemergence, visual injury, 0 to 100 scale (0 no effect, 100 complete control)
# [29] = 125 g ai/ha Postemergence, 0 is no effect, 100 is complete control
structure (smiles),measurement,setting,value
"CO/N=C1\CCN(c2cc(NS(=O)(=O)C(F)(F)F)c(C)cc2C)C1=O [Compound 9, 1,1,1-trifluoro-N-[5-[3-(methoxyimino)-2-oxo-1-pyrrolidinyl]-2,4-dimethylphenyl]methanesulfonamide]","Plant response rating (0 to 100 scale), Foxtail, Giant",[1]; 31 g ai/ha Preemergence,100
same,"Plant response rating (0 to 100 scale), Foxtail, Giant",[1]; 125 g ai/ha Preemergence,100
same,Ragweed plant response rating,[2]; [28],70
same,"Plant response rating (0 to 100 scale), Ragweed",[2]; [29],80
same,"Plant response rating, Rice",rice (Oryza sativa),30
same,"Pigweed, Palmer plant response rating",[3]; [28],70
same,"Plant response rating (0 to 100 scale), Pigweed, Palmer",[3]; [29],90
same,"Plant response rating (0 to 100 scale), Goosegrass",[4]; 31 g ai/ha Preemergence,100
same,"Plant response rating (0 to 100 scale), Goosegrass",[4]; 125 g ai/ha Preemergence,100
same,"Plant response rating, Ducksalad",[5],95
same,"Plant response rating, Barnyardgrass",[6],10
same,"Plant response rating (0 to 100 scale), Oat, Wild",[7]; 31 g ai/ha Preemergence,90
same,"Plant response rating (0 to 100 scale), Oat, Wild",[7]; 125 g ai/ha Preemergence,100
same,"Plant response rating (0 to 100 scale), Soybean",soybean (Glycine max) [8]; 31 g ai/ha Preemergence,80
same,"Plant response rating (0 to 100 scale), Soybean",soybean (Glycine max) [8]; 125 g ai/ha Preemergence,100
same,Kochia plant response rating,kochia (Bassia scoparia) [9]; [28],80
same,"Plant response rating (0 to 100 scale), Kochia",kochia (Bassia scoparia) [9]; [29],90
same,"Plant response rating (0 to 100 scale), Pigweed, Palmer",[10]; 31 g ai/ha Preemergence,100
same,"Plant response rating (0 to 100 scale), Pigweed, Palmer",[10]; 125 g ai/ha Preemergence,100
same,"Plant response rating, Sedge, Umbrella",[11],85
same,Soybean plant response rating,soybean (Glycine max) [12]; [28],80
same,"Plant response rating (0 to 100 scale), Soybean",soybean (Glycine max) [12]; [29],80
same,"Plant response rating (0 to 100 scale), Ryegrass, Italian",[13]; 31 g ai/ha Preemergence,60
same,"Plant response rating (0 to 100 scale), Ryegrass, Italian",[13]; 125 g ai/ha Preemergence,100
same,"Plant response rating (0 to 100 scale), Corn",corn (Zea mays) [14]; 31 g ai/ha Preemergence,50
same,"Plant response rating (0 to 100 scale), Corn",corn (Zea mays) [14]; 125 g ai/ha Preemergence,100
same,"Plant response rating (0 to 100 scale), Kochia",kochia (Bassia scoparia) [15]; 31 g ai/ha Preemergence,100
same,"Plant response rating (0 to 100 scale), Kochia",kochia (Bassia scoparia) [15]; 125 g ai/ha Preemergence,100
same,Corn plant response rating,corn (Zea mays) [16]; [28],90
same,"Plant response rating (0 to 100 scale), Corn",corn (Zea mays) [16]; [29],90
same,Wheat plant response rating,[17]; [28],80
same,"Plant response rating (0 to 100 scale), Wheat",[17]; [29],80
same,"Foxtail, Giant plant response rating",[18]; [28],40
same,"Plant response rating (0 to 100 scale), Foxtail, Giant",[18]; [29],90
same,"Ryegrass, Italian plant response rating",[19]; [28],50
same,"Plant response rating (0 to 100 scale), Ryegrass, Italian",[19]; [29],80
same,"Plant response rating (0 to 100 scale), Blackgrass",[20],90
same,"Plant response rating (0 to 100 scale), Ragweed",[21]; 31 g ai/ha Preemergence,50
same,"Plant response rating (0 to 100 scale), Ragweed",[21]; 125 g ai/ha Preemergence,90
same,melting point,,226 to 229 °C
same,Goosegrass plant response rating,[22]; [28],90
same,"Plant response rating (0 to 100 scale), Goosegrass",[22]; [29],90
same,Blackgrass plant response rating,[23],80
same,Galium plant response rating,[24]; [28],90
same,"Plant response rating (0 to 100 scale), Galium",[24]; [29],100
same,"Plant response rating (0 to 100 scale), Wheat",[25]; 31 g ai/ha Preemergence,90
same,"Plant response rating (0 to 100 scale), Wheat",[25]; 125 g ai/ha Preemergence,100
same,Horseweed plant response rating,[26]; [28],100
same,"Plant response rating (0 to 100 scale), Horseweed",[26]; [29],100
same,"Oat, Wild plant response rating",[27]; [28],80
same,"Plant response rating (0 to 100 scale), Oat, Wild",[27]; [29],80
